Measured values published in patent US10125138B2, “Triazolotriazinone derivatives having activity a s herbicides” (Syngenta Participations AG, priority 2015, dated 2018).

Legend:
Type in all cases: in vivo
Solanum nigrum (SOLNI) [1] = assay: Pre-emergence glasshouse herbicide test, Solanum nigrum; settings: 1000 g/h, evaluated after 13 days, five point scale
Procedure: (§1) Seeds of a variety of test species are sown in standard soil in pots (Lolium perenne (LOLPE), Solanum nigrum (SOLNI), Amaranthus retoflexus (AMARE), Setaria faberi (SETFA), Echinochloa crus-galli (ECHCG), Ipomoea hederacea (IPOHE)). After cultivation for one day (pre-emergence) or after 8 days cultivation (post-emergence) under controlled conditions in a glasshouse (at 24/16° C., day/night; 14 hours light; 65% humidity), the plants are sprayed with an aqueous spray solution derived from the formulation of the technical active ingredient in acetone/water (50:50) solution containing 0.5% Tween 20 (polyoxyethelyene sorbitan monolaurate, CAS RN 9005-64-5). Compounds are applied at 1000 g/h. The test plants are then grown in a glasshouse under controlled conditions in a glasshouse (at 24/16° C., day/night; 14 hours light; 65% humidity) and watered twice daily. After 13 days for pre and post-emergence, the test is evaluated for the percentage damage caused to the plant. The biological activities are shown in the following table on a five point scale (5=80-100%; 4=60-79%; 3=40-59%; 2=20-39%; 1=0-19%).

[2] = system: Amaranthus retoflexus (AMARE); assay: Pre-emergence glasshouse herbicide test, Amaranthus retoflexus; settings: evaluated after 13 days, five point scale
Procedure: as §1, with “Compounds are applied at 1000 g/h.” left out

Lolium perenne (LOLPE) [3] = assay: Post-emergence glasshouse herbicide test, Lolium perenne; settings: evaluated after 13 days, five point scale
Procedure: as §1, with “Compounds are applied at 1000 g/h.” left out

[4] = system: Echinochloa crus-galli (ECHCG); assay: Pre-emergence glasshouse herbicide test, Echinochloa crus-galli; settings: evaluated after 13 days, five point scale
Procedure: as §1, with “Compounds are applied at 1000 g/h.” left out

[5] = system: Echinochloa crus-galli (ECHCG); assay: Post-emergence glasshouse herbicide test, Echinochloa crus-galli; settings: evaluated after 13 days, five point scale
Procedure: as §1, with “Compounds are applied at 1000 g/h.” left out

Setaria faberi (SETFA) [6] = assay: Post-emergence glasshouse herbicide test, Setaria faberi; settings: evaluated after 13 days, five point scale
Procedure: as §1, with “Compounds are applied at 1000 g/h.” left out

[7] = system: Amaranthus retoflexus (AMARE); assay: Post-emergence glasshouse herbicide test, Amaranthus retoflexus; settings: evaluated after 13 days, five point scale
Procedure: as §1, with “Compounds are applied at 1000 g/h.” left out

Setaria faberi (SETFA) [8] = assay: Pre-emergence glasshouse herbicide test, Setaria faberi; settings: evaluated after 13 days, five point scale
Procedure: as §1, with “Compounds are applied at 1000 g/h.” left out

Lolium perenne (LOLPE) [9] = assay: Pre-emergence glasshouse herbicide test, Lolium perenne; settings: evaluated after 13 days, five point scale
Procedure: as §1, with “Compounds are applied at 1000 g/h.” left out

[10] = system: Ipomoea hederacea (IPOHE); assay: Pre-emergence glasshouse herbicide test, Ipomoea hederacea; settings: evaluated after 13 days, five point scale
Procedure: as §1, with “Compounds are applied at 1000 g/h.” left out

[11] = system: Ipomoea hederacea (IPOHE); assay: Post-emergence glasshouse herbicide test, Ipomoea hederacea; settings: evaluated after 13 days, five point scale
Procedure: as §1, with “Compounds are applied at 1000 g/h.” left out

Solanum nigrum (SOLNI) [12] = assay: Post-emergence glasshouse herbicide test, Solanum nigrum; settings: 1000 g/h, evaluated after 13 days, five point scale
Procedure: as §1

| SMILES | percentage damage caused to the plant, PRE Application SOLNI (Solanum nigrum (SOLNI) [1]) | percentage damage caused to the plant, PRE Application AMARE ([2]; 1000 g/h) | percentage damage caused to the plant, POST Application LOLPE (Lolium perenne (LOLPE) [3]; 1000 g/h) | percentage damage caused to the plant, PRE Application ECHCG ([4]; 1000 g/h) | percentage damage caused to the plant, POST Application ECHCG ([5]; 1000 g/h) | percentage damage caused to the plant, POST Application SETFA (Setaria faberi (SETFA) [6]; 1000 g/h) | percentage damage caused to the plant, POST Application AMARE ([7]; 1000 g/h) | percentage damage caused to the plant, PRE Application SETFA (Setaria faberi (SETFA) [8]; 1000 g/h) | percentage damage caused to the plant, PRE Application LOLPE (Lolium perenne (LOLPE) [9]; 1000 g/h) | percentage damage caused to the plant, PRE Application IPOHE ([10]; 1000 g/h) | percentage damage caused to the plant, POST Application IPOHE ([11]; 1000 g/h) | percentage damage caused to the plant, POST Application SOLNI (Solanum nigrum (SOLNI) [12]) | also measured |
| --- | --- | --- | --- | --- | --- | --- | --- | --- | --- | --- | --- | --- | --- |
| Cn1nnnc1NC(=O)c1nn2cnn(-c3ccccc3)c2nc1=O [Compound 1.001] | 5 (5=80-100%) | 5 (5=80-100%) | 3 (3=40-59%) | 5 (5=80-100%) | 5 (5=80-100%) | 5 (5=80-100%) | 5 (5=80-100%) | 5 (5=80-100%) | 3 (3=40-59%) | 4 (4=60-79%) | 5 (5=80-100%) | 5 (5=80-100%) |  |
| Cn1nnnc1NC(=O)c1nn2cnn(-c3ccc(F)cc3)c2nc1=O [Compound 1.002] | 5 (5=80-100%) | 5 (5=80-100%) | 5 (5=80-100%) | 5 (5=80-100%) | 5 (5=80-100%) | 5 (5=80-100%) | 5 (5=80-100%) | 5 (5=80-100%) | 4 (4=60-79%) | 5 (5=80-100%) | 5 (5=80-100%) | 5 (5=80-100%) |  |
| COc1ccc(-n2ncn3nc(C(=O)Nc4nnnn4C)c(=O)nc23)cc1 [Compound 1.003] | 5 (5=80-100%) | 5 (5=80-100%) | 4 (4=60-79%) | 5 (5=80-100%) | 5 (5=80-100%) | 5 (5=80-100%) | 5 (5=80-100%) | 5 (5=80-100%) | 4 (4=60-79%) | 5 (5=80-100%) | 5 (5=80-100%) | 5 (5=80-100%) |  |
| CCn1nnnc1NC(=O)c1nn2cnn(-c3cccc(C)c3)c2nc1=O [Compound 1.046] |  | 5 (5=80-100%) |  | 5 (5=80-100%) | 5 (5=80-100%) | 5 (5=80-100%) | 5 (5=80-100%) | 5 (5=80-100%) |  | 5 (5=80-100%) | 5 (5=80-100%) |  |  |
| O=C1CCCC(=O)C1C(=O)c1nn2cnn(-c3ccccc3)c2nc1=O [Compound 4.001] |  |  |  |  |  |  |  |  |  |  |  |  | percentage damage caused to the plant, PRE Application AMARE ([2]; applied at 250 g/ha): 5 (5=80-100%); percentage damage caused to the plant, POST Application LOLPE (Lolium perenne (LOLPE) [3]; applied at 250 g/ha): 1 (1=0-19%); percentage damage caused to the plant, PRE Application ECHCG ([4]; applied at 250 g/ha): 5 (5=80-100%); percentage damage caused to the plant, POST Application ECHCG ([5]; applied at 250 g/ha): 5 (5=80-100%); percentage damage caused to the plant, POST Application SETFA (Setaria faberi (SETFA) [6]; applied at 250 g/ha): 5 (5=80-100%); percentage damage caused to the plant, POST Application AMARE ([7]; applied at 250 g/ha): 5 (5=80-100%); percentage damage caused to the plant, PRE Application SETFA (Setaria faberi (SETFA) [8]; applied at 250 g/ha): 1 (1=0-19%); percentage damage caused to the plant, PRE Application LOLPE (Lolium perenne (LOLPE) [9]; applied at 250 g/ha): 2 (2=20-39%); percentage damage caused to the plant, PRE Application IPOHE ([10]; applied at 250 g/ha): 1 (1=0-19%); percentage damage caused to the plant, POST Application IPOHE ([11]; applied at 250 g/ha): 5 (5=80-100%) |
| O=C1CCCC(=O)C1C(=O)c1nn2cnn(-c3ccc(C(F)(F)F)cc3)c2nc1=O [Compound 4.008] |  | 5 (5=80-100%) |  | 5 (5=80-100%) | 5 (5=80-100%) | 5 (5=80-100%) | 4 (4=60-79%) | 5 (5=80-100%) |  | 5 (5=80-100%) | 5 (5=80-100%) |  |  |
| O=C1CCCC(=O)C1C(=O)c1nn2cnn(-c3cccc(Cl)c3)c2nc1=O [Compound 4.009] |  | 5 (5=80-100%) |  | 5 (5=80-100%) | 5 (5=80-100%) | 5 (5=80-100%) | 5 (5=80-100%) | 5 (5=80-100%) |  | 5 (5=80-100%) | 5 (5=80-100%) |  |  |
| O=C(c1nn2cnn(-c3ccc(C(F)(F)F)cc3)c2nc1=O)C1C(=O)C2CCC(C2)C1=O (centres unmarked) [Compound 5.008] |  | 5 (5=80-100%) |  | 5 (5=80-100%) | 5 (5=80-100%) | 5 (5=80-100%) | 5 (5=80-100%) | 5 (5=80-100%) |  | 5 (5=80-100%) | 5 (5=80-100%) |  |  |
| Cc1cccc(-n2ncn3nc(C(=O)C4C(=O)CC(C)CC4=O)c(=O)nc23)c1 (centres unmarked) [Compound 6.001] |  | 5 (5=80-100%) |  | 5 (5=80-100%) | 5 (5=80-100%) | 5 (5=80-100%) | 5 (5=80-100%) | 4 (4=60-79%) |  | 5 (5=80-100%) | 5 (5=80-100%) |  |  |
